# Data published in US9266878B2, “Phosphatidylinositol 3-kinase inhibitors” (Gilead Calistoga LLC, priority 2012, dated 2016).
# Key:
# Assay in all cases: Enzymatic activity of PI3K isoforms, TR-FRET assay (PIP3 formation)
# Assay type in all cases: biochemical
# PI3Kδ = PI3Kδ (Homo sapiens (Human), UniProt O00329); settings: bound given in nM
# Experimental: (§1) Enzymatic activity of the class I PI3K isoforms was measured using a time-resolved fluorescence resonance energy transfer (TR-FRET) assay that monitors formation of the product 3,4,5-inositol triphosphate molecule (PIP3), as it competes with fluorescently labeled PIP3 for binding to the GRP-1 pleckstrin homology domain protein. An increase in […] product results in a decrease in TR-FRET signal as the labeled fluorophore is displaced from the GRP-1 protein binding site.
# (§2) Class I PI3K isoforms were expressed and purified as heterodimeric recombinant proteins. All assay reagents and buffers for the TR-FRET assay were purchased from Millipore. […] After an assay reaction time of 30 minutes at 25° C., reactions were terminated with a final concentration of 10 mM EDTA, 10 nM labeled-PIP3, and 35 nM Europium labeled GRP-1 detector protein before reading TR-FRET on an Envision plate reader (Ex: 340 nm; Em: 615/665 nm; 100 μs delay and 500 μs read window).
# (§3) IC50 are reported in units of nM. These assays generally produced results within 3-fold of the reported mean.
# PI3Kα = PI3Kα (Homo sapiens (Human), UniProt P42336); settings: bound given in uM
# Experimental: as §1, §2, §3
# PI3Kγ = PI3Kγ (Homo sapiens (Human), UniProt P48736); settings: bound given in uM
# Experimental: as §1
# Class I PI3K isoforms were expressed and purified as heterodimeric recombinant proteins. All assay reagents and buffers for the TR-FRET assay were purchased from Millipore.
# IC50 are reported in units of nM.
# Sequence of PI3Kδ (O00329 whole entry, the tested form may be a part, canonical isoform): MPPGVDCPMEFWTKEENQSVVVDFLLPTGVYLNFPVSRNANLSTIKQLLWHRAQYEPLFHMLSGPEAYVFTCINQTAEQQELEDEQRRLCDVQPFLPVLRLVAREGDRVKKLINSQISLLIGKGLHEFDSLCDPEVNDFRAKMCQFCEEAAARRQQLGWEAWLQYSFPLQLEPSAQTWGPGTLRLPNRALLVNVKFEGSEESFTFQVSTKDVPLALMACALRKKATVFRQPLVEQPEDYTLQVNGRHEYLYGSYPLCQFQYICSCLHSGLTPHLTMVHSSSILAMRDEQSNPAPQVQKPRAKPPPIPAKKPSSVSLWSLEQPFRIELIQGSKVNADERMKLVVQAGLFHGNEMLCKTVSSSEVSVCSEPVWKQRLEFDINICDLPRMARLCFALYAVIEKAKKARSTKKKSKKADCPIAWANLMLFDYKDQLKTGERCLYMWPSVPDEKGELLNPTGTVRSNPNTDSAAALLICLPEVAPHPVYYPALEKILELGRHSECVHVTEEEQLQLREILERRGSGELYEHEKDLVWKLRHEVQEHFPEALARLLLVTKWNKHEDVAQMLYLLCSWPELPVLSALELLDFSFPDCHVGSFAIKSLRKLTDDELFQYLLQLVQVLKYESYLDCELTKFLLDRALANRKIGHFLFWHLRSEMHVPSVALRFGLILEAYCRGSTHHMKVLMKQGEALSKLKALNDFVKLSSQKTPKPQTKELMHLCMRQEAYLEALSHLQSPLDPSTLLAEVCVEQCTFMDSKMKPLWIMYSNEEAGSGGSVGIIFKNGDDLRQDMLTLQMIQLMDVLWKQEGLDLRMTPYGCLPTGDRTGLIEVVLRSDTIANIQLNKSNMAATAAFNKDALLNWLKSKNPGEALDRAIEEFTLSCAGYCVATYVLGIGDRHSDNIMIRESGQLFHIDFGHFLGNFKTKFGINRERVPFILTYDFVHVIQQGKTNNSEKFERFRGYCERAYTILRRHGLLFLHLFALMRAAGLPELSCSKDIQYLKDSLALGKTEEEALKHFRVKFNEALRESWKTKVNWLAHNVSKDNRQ
# Sequence of PI3Kδ (P27986 whole entry partner, the tested form may be a part, canonical isoform): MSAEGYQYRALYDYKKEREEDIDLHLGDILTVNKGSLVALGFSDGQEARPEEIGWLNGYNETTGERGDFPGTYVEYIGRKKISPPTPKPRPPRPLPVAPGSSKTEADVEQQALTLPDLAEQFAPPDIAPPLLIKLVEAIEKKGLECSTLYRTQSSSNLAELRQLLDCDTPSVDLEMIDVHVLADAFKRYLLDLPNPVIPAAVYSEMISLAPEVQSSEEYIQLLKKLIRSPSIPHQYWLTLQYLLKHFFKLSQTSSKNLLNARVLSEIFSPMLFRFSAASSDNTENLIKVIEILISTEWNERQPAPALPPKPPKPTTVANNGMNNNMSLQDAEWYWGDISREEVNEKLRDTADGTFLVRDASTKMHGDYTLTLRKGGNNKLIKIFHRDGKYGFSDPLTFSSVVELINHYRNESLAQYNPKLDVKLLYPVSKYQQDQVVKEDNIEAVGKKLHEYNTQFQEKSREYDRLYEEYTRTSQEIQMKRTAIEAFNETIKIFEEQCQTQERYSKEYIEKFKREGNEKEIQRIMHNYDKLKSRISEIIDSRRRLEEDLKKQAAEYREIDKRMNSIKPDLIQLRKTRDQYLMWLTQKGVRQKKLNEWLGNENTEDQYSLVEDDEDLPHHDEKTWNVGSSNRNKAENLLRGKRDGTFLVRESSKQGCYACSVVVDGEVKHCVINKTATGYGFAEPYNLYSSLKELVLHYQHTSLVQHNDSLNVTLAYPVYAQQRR
# Sequence of PI3Kα (P42336 whole entry): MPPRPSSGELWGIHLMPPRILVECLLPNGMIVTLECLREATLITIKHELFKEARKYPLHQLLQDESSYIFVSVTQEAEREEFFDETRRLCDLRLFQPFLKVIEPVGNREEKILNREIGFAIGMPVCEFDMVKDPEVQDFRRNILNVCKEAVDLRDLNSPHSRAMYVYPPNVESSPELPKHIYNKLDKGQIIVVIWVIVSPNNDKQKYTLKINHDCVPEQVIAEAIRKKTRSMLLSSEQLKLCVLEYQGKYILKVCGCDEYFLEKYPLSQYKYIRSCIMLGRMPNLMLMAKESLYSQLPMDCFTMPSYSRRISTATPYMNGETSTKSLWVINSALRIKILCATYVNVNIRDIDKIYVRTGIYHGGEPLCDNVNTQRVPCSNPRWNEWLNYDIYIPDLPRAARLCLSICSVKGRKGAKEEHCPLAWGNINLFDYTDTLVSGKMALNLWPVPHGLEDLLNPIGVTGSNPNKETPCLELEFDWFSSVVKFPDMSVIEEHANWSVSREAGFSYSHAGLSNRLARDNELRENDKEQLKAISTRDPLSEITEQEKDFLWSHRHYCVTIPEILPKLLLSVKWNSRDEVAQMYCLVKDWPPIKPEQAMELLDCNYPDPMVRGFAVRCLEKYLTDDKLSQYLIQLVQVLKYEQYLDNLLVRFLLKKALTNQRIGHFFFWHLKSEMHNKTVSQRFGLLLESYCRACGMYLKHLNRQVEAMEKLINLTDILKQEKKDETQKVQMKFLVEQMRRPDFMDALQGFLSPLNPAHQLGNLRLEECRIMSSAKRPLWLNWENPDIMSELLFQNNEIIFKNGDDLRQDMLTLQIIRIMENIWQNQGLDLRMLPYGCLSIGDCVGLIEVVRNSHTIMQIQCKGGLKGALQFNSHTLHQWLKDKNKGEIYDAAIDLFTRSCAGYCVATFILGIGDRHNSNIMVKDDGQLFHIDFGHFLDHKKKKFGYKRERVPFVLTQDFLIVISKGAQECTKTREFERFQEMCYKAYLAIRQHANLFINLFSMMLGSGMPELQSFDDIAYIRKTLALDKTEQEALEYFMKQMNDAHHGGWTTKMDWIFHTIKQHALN
# Sequence of PI3Kα (P27986 whole entry partner): as the sequence (P27986 whole entry partner, the tested form may be a part, canonical isoform) above
# Sequence of PI3Kγ (P48736 whole entry): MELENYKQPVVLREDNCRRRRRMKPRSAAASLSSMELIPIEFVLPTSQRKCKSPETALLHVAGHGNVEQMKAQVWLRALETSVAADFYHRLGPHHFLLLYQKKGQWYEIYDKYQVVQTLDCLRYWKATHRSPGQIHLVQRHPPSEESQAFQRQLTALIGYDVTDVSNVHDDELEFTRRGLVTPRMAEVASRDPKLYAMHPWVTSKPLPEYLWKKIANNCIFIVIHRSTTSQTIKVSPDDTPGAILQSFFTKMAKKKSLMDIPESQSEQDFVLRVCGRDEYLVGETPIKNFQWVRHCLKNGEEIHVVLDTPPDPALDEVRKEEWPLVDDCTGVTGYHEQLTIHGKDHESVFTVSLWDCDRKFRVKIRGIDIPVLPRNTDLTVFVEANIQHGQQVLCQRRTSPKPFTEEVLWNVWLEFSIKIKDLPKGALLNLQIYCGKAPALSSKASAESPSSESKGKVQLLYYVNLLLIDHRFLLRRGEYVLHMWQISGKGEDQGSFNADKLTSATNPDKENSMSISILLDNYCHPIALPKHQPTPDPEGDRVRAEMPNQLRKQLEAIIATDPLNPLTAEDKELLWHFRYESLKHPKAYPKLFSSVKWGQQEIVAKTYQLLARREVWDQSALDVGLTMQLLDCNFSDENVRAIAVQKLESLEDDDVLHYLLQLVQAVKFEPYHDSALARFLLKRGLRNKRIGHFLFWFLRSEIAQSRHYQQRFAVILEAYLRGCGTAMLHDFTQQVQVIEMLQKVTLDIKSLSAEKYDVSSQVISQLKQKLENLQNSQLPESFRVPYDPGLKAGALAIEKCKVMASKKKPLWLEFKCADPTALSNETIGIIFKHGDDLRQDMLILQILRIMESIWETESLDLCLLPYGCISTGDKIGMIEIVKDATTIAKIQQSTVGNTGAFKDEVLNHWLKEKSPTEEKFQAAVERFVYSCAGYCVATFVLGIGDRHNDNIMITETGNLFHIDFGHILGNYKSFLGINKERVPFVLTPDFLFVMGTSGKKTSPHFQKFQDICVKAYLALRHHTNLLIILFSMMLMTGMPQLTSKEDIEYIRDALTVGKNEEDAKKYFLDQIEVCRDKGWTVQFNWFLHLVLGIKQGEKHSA
# Sequence of PI3Kγ (Q8WYR1 whole entry partner): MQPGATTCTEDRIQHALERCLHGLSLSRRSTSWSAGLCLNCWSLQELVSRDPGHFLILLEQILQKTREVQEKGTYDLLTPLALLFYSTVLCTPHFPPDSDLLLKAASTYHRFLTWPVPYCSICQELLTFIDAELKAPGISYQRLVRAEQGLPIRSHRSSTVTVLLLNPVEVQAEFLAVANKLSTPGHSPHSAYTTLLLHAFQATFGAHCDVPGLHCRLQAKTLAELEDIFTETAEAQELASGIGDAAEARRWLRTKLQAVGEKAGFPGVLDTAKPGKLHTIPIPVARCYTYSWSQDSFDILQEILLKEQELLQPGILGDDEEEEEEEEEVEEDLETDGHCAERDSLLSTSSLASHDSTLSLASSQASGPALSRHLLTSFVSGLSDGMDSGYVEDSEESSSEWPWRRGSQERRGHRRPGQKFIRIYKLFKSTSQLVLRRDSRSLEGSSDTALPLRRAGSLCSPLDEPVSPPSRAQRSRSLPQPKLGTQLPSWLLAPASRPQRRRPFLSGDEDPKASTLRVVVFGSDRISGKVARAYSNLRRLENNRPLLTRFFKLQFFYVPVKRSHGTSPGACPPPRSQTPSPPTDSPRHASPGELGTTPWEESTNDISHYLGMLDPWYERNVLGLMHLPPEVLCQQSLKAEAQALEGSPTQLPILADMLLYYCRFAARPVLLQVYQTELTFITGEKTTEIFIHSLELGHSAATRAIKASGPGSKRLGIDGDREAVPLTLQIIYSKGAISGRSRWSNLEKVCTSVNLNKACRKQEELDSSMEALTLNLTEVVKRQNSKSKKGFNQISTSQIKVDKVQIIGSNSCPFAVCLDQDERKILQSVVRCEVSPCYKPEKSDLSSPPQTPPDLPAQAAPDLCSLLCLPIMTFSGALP
Compound,IC50 (PI3Kδ),IC50 (PI3Kα),IC50 (PI3Kγ)
Nc1ncnc(N[C@H](CO)c2nc3cccc(Cl)c3c(=O)n2-c2ccccc2)c1C#Cc1ccc(F)cn1 [139b],< 100 nM,> 1 µM,> 1 µM
"C[C@H](Nc1ncnc(N)c1C#Cc1ccc(F)cn1)c1nc2c(F)ccc(F)c2c(=O)n1-c1ccccc1 [Compound 4a, (S)-2-(1-(6-amino-5-((5-fluoropyridin-2-yl)ethynyl)pyrimidin-4-ylamino)ethyl)-5,8-difluoro-3-phenylquinazolin-4(3H)-one]",< 100 nM,> 1 µM,> 1 µM
"C[C@H](Nc1ncnc(N)c1C#Cc1ccc(F)cn1)c1nc2c(Cl)ccc(Cl)c2c(=O)n1-c1ccccc1 [Compound 11a, (S)-2-(1-(6-amino-5-((5-fluoropyridin-2-yl)ethynyl)pyrimidin-4-ylamino)ethyl)-5,8-dichloro-3-phenylquinazolin-4(3H)-one]",< 100 nM,> 1 µM,> 1 µM
"C[C@H](Nc1ncnc(N)c1C#Cc1ccc(F)cn1)c1nc2c(F)cccc2c(=O)n1-c1ccccc1 [Compound 13a, (S)-2-(1-(6-amino-5-((5-fluoropyridin-2-yl)ethynyl)pyrimidin-4-ylamino)ethyl)-8-fluoro-3-phenylquinazolin-4(3H)-one]",< 100 nM,> 1 µM,> 1 µM
"Cc1ccc(F)c2c(=O)n(-c3ccccc3)c([C@H](C)Nc3ncnc(N)c3C#Cc3ccc(F)cn3)nc12 [Compound 69a, (S)-2-(1-((6-amino-5-((5-fluoropyridin-2-yl)ethynyl)pyrimidin-4-yl)amino)ethyl)-5-fluoro-8-methyl-3-phenylquinazolin-4(3H)-one]",< 100 nM,> 1 µM,> 1 µM
"Cc1ccc(F)c2nc([C@H](C)Nc3ncnc(N)c3C#Cc3cnccn3)n(-c3cccc(C#N)c3)c(=O)c12 [Compound 73a, (S)-3-(2-(1-((6-amino-5-(pyrazin-2-ylethynyl)pyrimidin-4-yl)amino)ethyl)-8-fluoro-5-methyl-4-oxoquinazolin-3(4H)-yl)benzonitrile]",< 100 nM,> 1 µM,> 1 µM

# Other lines, results leading:
IC50 (PI3Kδ),IC50 (PI3Kα),IC50 (PI3Kγ),Compound
< 100 nM,> 1 µM,> 1 µM,"C[C@H](Nc1ncnc(N)c1C#Cc1cnccn1)c1nc2cccc(F)c2c(=O)n1-c1ccccc1 [Compound 86a, (S)-2-(1-((6-amino-5-(pyrazin-2-ylethynyl)pyrimidin-4-yl)amino)ethyl)-5-fluoro-3-phenylquinazolin-4(3H)-one]"
< 100 nM,> 1 µM,> 1 µM,"C[C@H](Nc1ncnc(N)c1C#Cc1cnccn1)c1nc2ccc(F)cc2c(=O)n1-c1ccccc1 [Compound 91a, (S)-2-(1-((6-amino-5-(pyrazin-2-ylethynyl)pyrimidin-4-yl)amino)ethyl)-6-fluoro-3-phenylquinazolin-4(3H)-one]"
< 100 nM,> 1 µM,> 1 µM,"Cc1cccc2nc([C@H](C)Nc3ncnc(N)c3C#Cc3cnccn3)n(-c3cccc(F)c3)c(=O)c12 [Compound 106a, (S)-2-(1-((6-amino-5-(pyrazin-2-ylethynyl)pyrimidin-4-yl)amino)ethyl)-3-(3-fluorophenyl)-5-methylquinazolin-4(3H)-one]"
< 100 nM,> 1 µM,> 1 µM,"C[C@H](Nc1ncnc(N)c1C#Cc1ncccn1)c1nc2cccc(F)c2c(=O)n1-c1ccccc1 [Compound 109a, 2-(1-((6-amino-5-(pyrimidin-2-ylethynyl)pyrimidin-4-yl)amino)ethyl)-5-fluoro-3-phenylquinazolin-4(3H)-one]"
< 100 nM,> 1 µM,> 1 µM,"C[C@H](Nc1ncnc(N)c1C#Cc1cnccn1)c1nc2cccc(F)c2c(=O)n1-c1cccnc1 [Compound 115a, (S)-2-(1-((6-amino-5-(pyrazin-2-ylethynyl)pyrimidin-4-yl)amino)ethyl)-5-fluoro-3-(pyridin-3-yl)quinazolin-4(3H)-one]"
